In US11485751B2, “Apramycin derivatives” (WAYNE STATE UNIVERSITY, priority 2017, dated 2022):
pIC50: −log10 of the molar value. Values after ≈ are worked out from the molar mass of the structure shown. Like-named read-outs stand apart in the source and are kept apart here.

How the values were obtained:
[1] = tested on: clinical isolates carrying AAC(3)-IV; assay: MIC broth microdilution, AAC(3)-IV; type: cell-based; conditions: for MIC: clinical isolates, IMM Univ. Zurich, AAC(3)-IV, read-out: MIC AAC(3)-IV
Method in brief: (§1)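 MICs obtained by broth microdilution following CLSI M07-A10, tested against clinical isolates from the Institute of Medical Microbiology, Univ. Zurich; values in μg/ml.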

[2] = tested on: clinical isolates carrying APH(3′)-I; assay: MIC broth microdilution, APH(3′)-I; type: cell-based; conditions: IMM Univ. Zurich
[3] = tested on: clinical isolates carrying APH(3′)-II; assay: MIC broth microdilution, APH(3′)-II; type: cell-based; conditions: clinical isolates, IMM Univ. Zurich; APH(3′)-II; read-out: MIC APH(3′)-II
[4] = tested on: clinical isolates carrying APH(3′)-III; assay: MIC broth microdilution, APH(3′)-III; type: cell-based; conditions: IMM Univ. Zurich
[5] = tested on: clinical isolates carrying APH(3′)-VI; assay: MIC broth microdilution, APH(3′)-VI; type: cell-based; conditions: IMM Univ. Zurich
[6] = tested on: bacterial ribosomes; assay: in-vitro translation assay, bacterial ribosomes; type: biochemical
Method in brief: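 Each ribosome preparation (bacterial, human chimeric as the mitochondrial model, rabbit reticulocyte as the cytosolic model) drives in-vitro translation with the test compound present. Inhibition of translation gives the IC50.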

[7] = tested on: human mitochondrial ribosomes; assay: in-vitro translation assay, human mitochondrial (human chimeric) ribosomes; type: biochemical
Method in brief: (§2)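 Inhibitory potency was determined as IC50 in in-vitro translation systems based on bacterial ribosomes, human chimeric (mitochondrial-type) ribosomes or rabbit reticulocyte (cytosolic) ribosomes.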

[8] = tested on: human cytosolic ribosomes; assay: in-vitro translation assay, human cytosolic ribosomes; type: biochemical
Method in brief: as §2

[9] = tested on: AG212, Escherichia coli ATCC25922; assay: MIC reference strain AG212; type: cell-based; conditions: Escherichia coli; reference strain ATCC25922; read-out: MIC AG212 E. coli
Method in brief: (§3)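 CLSI-conform broth microdilution testing gives the minimal concentration preventing visible growth of these reference strains.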

[10] = tested on: AG215, Klebsiella pneumonia; assay: MIC reference strain AG215; type: cell-based; conditions: Klebsiella pneumoniae, reference strain; read-out: MIC AG215 K. pneumonia
Method in brief: as §3

[11] = tested on: AG290, Enterobacter cloacae; assay: MIC reference strain AG290; type: cell-based; conditions: Enterobacter cloacae; reference strain; read-out: MIC AG290 E. cloacae
Method in brief: as §3

[12] = tested on: AG220, Pseudomonas aeruginosa ATCC27853; assay: MIC reference strain AG220; type: cell-based; conditions: Pseudomonas aeruginosa, ATCC27853, reference strain ATCC27853; read-out: MIC AG220 P. aeruginosa
Method in brief: as §3

[13] = tested on: AG225, Acinetobacter baumannii pittii; assay: MIC reference strain AG225; type: cell-based; conditions: Acinetobacter baumannii, reference strain; read-out: MIC AG225 A. baumannii
Method in brief: as §3

[14] = tested on: ATCC19977 M. abcessus; assay: MIC reference strain ATCC19977; type: cell-based; conditions: read-out: MIC ATCC19977 M. abcessus
Method in brief: (§4)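 Reported as MIC; method was a CLSI-conforming microdilution in broth.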

[15] = tested on: AG001 E. coli WT; assay: Antibacterial activity, clinical isolate AG001; type: cell-based; design: unit not given here
Method in brief: as §4

[16] = tested on: AG055 E. coli WT; assay: Antibacterial activity, clinical isolate AG055; type: cell-based; design: unit not given here
Method in brief: as §4

[17] = tested on: AG003 E. coli AAC(3)-II; assay: Antibacterial activity, clinical isolate AG003; type: cell-based
Method in brief: as §4

[18] = tested on: AG173 E. coli AAC(3)-IV; assay: Antibacterial activity, clinical isolate AG173; type: cell-based
Method in brief: as §4

[19] = tested on: AG163 E. coli APH(3′)-I; assay: Antibacterial activity, clinical isolate AG163; type: cell-based
Method in brief: as §4

[20] = tested on: AG038 MRSA; assay: Antibacterial activity, clinical isolate AG038; type: cell-based; design: unit not given here
Method in brief: as §4

[21] = tested on: AG039 MRSA AAC(6′)-I ANT(4′)-I; assay: Antibacterial activity, clinical isolate AG039; type: cell-based
Method in brief: as §4

[22] = tested on: AG042 MRSA AAC(6′)-I ANT(4′)-I APH(2′); assay: Antibacterial activity, clinical isolate AG042; type: cell-based; design: unit not given here
Method in brief: as §4

[23] = tested on: AG031 P. aer. APH(3′)-II; assay: Antibacterial activity, clinical isolate AG031; type: cell-based; design: unit not given here
Method in brief: as §4

[24] = tested on: AG032 P. aer. APH(3′)-II; assay: Antibacterial activity, clinical isolate AG032; type: cell-based; design: unit not given here
Method in brief: as §4

[25] = tested on: AG033 P. aer. APH(3′)-II AAC(6′)-I; assay: Antibacterial activity, clinical isolate AG033; type: cell-based; design: unit not given here
Method in brief: as §4

[26] = tested on: Engineered E. coli pH430 WT; assay: Activity, engineered E. coli pH430 WT; type: cell-based; conditions: wild type
Method in brief: (§5)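 CLSI M07-A10 broth microdilution method used; values reported are minimal inhibitory concentrations.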

[27] = tested on: Engineered E. coli AG103 armA; assay: Activity against G1405-methylated 16S-rRNA, E. coli AG103 armA; type: cell-based
Method in brief: as §5

[28] = tested on: Engineered E. coli pH424 armA; assay: Activity against G1405-methylated 16S-rRNA, E. coli pH424 armA; type: cell-based
Method in brief: as §5

[29] = tested on: Engineered E. coli pH425 rmtB; assay: Activity against G1405-methylated 16S-rRNA, E. coli pH425 rmtB; type: cell-based
Method in brief: as §5

[30] = tested on: Engineered E. coli pH426 rmtC; assay: Activity against G1405-methylated 16S-rRNA, E. coli pH426 rmtC; type: cell-based
Method in brief: as §5

[31] = tested on: Engineered E. coli pH427 rmtF; assay: Activity against G1405-methylated 16S-rRNA, E. coli pH427 rmtF; type: cell-based
Method in brief: as §5

[32] = tested on: E. coli AG153 AAC(3)-II APH(3′)-II rmtB; assay: Activity against G1405-methylated 16S-rRNA, clinical isolate AG153; type: cell-based
Method in brief: as §5

[33] = tested on: K. pneum. AG269 AAC(3)-II AAC(6′)-I rmtB; assay: Activity against G1405-methylated 16S-rRNA, clinical isolate AG269; type: cell-based
Method in brief: as §5

[34] = tested on: Enterob. AG302 AAC(3)-II AAC(6′)-I rmtC; assay: Activity against G1405-methylated 16S-rRNA, clinical isolate AG302; type: cell-based
Method in brief: as §5

[35] = tested on: A baum. AG227 APH(3′)-I armA; assay: Activity against G1405-methylated 16S-rRNA, clinical isolate AG227; type: cell-based
Method in brief: as §5

[36] = tested on: APH(3′, 5″) resistance determinant; assay: Susceptibility to the APH(3′, 5″) resistance determinant; type: cell-based
Source text: Minimal inhibitory concentrations (MIC) have been determined by broth microdilution assays (CLSI. Methods for Dilution Antimicrobial Susceptibility Tests for Bacteria That Grow Aerobically; Approved Standard—Tenth Edition. CLSI document M07-A10. Wayne, Pa.: Clinical and Laboratory Standards Institute; 2015.).
The introduction of a formamido group results in compounds that display increased selectivity for the bacterial ribosome over the mitochondrial (wild type and A1555G mutant) ribosomes, predictive of reduced ototoxicity.

[37] = tested on: eukaryotic ribosomes; assay: in-vitro translation assays, bacterial versus eukaryotic ribosomes; type: biochemical
Source text: IC50 values for bacterial, human chimeric, and rabbit reticulocyte ribosomes have been determined by in-vitro translation assays as described previously (Proc. Nat. Ac. Sci USA 2012, 109(27):10984-10989).

[38] = tested on: WT clinical isolates; assay: MIC broth microdilution, WT; type: cell-based; conditions: read-out: MIC WT, clinical isolates, IMM Univ. Zurich; wild type
Method in brief: as §1

[39] = tested on: isolates carrying apmA; assay: MIC broth microdilution, apmA; type: cell-based
Method in brief: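 MICs (μg/ml) were determined by CLSI M07-A10 broth microdilution against apmA-carrying clinical isolates from the Institute of Medical Microbiology, University of Zurich.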

[40] = tested on: N. gonorrhoeae; assay: Disk diffusion N. gonorrhoeae; type: cell-based

SMILES	MIC [1] [µg/mL]	pIC50 [6]	pIC50 [7]	pIC50 [8]	MIC [9] [µg/mL]	MIC [10] [µg/mL]	MIC [11] [µg/mL]	MIC [12] [µg/mL]	MIC [13] [µg/mL]	Antibacterial activity AG001 E. coli WT [15]	Antibacterial activity AG055 E. coli WT [16]	Antibacterial activity AG003 E. coli AAC(3)-II [17]	Antibacterial activity AG173 E. coli AAC(3)-IV [18]	Antibacterial activity AG038 MRSA [20]	Antibacterial activity AG039 MRSA AAC(6′)-I ANT(4′)-I [21]	Antibacterial activity AG042 MRSA AAC(6′)-I ANT(4′)-I APH(2′) [22]	Antibacterial activity AG031 P. aer. APH(3′)-II [23]	Antibacterial activity AG032 P. aer. APH(3′)-II [24]	Antibacterial activity AG033 P. aer. APH(3′)-II AAC(6′)-I [25]	Activity E. coli pH430 WT [26]	also measured
CNC1C(OC2OC(CO)C(N)C(O)C2O)OC2CC(N)C(OC3C(N)CC(N)C(O)C3OC3OC(CO)C(OCCN)C3O)OC2C1O [DC124, 5-O-β-(3′″-O-(2-Aminoethyl)-D-ribofuranosyl) apramycin]	> 32	7.22	4.24	3.74	2	1 to 2	1 to 2	16 to 32	8	8	8	4-8	4	8-16	8	8	32-64	32-64	128	2	activity against the IMM clinical isolates carrying the gene for AAC(3)-IV [1]: excellent antiribosomal and antibacterial activity; MIC [2]: 64 µg/mL (≈ 89.5 µM); MIC [3]: 2 µg/mL (≈ 2.8 µM); MIC [4]: 0.5 µg/mL (≈ 0.7 µM); MIC [5]: 4 µg/mL (≈ 5.6 µM); MIC [14]: 8 µg/mL (≈ 11.2 µM); Antibacterial activity AG163 E. coli APH(3′)-I [19]: 4-8; Activity E. coli AG103 armA [27]: 0.5; Activity E. coli pH424 armA [28]: 1; Activity E. coli pH425 rmtB [29]: 4; Activity E. coli pH426 rmtC [30]: 2; Activity E. coli pH427 rmtF [31]: 2; Activity E. coli AG153 AAC(3)-II APH(3′)-II rmtB [32]: 4; Activity K. pneum. AG269 AAC(3)-II AAC(6′)-I rmtB [33]: 2; Activity Enterob. AG302 AAC(3)-II AAC(6′)-I rmtC [34]: 4; Activity A baum. AG227 APH(3′)-I armA [35]: 16; susceptibility to the APH(3′, 5″) resistance determinant [36]: susceptible; activity against eukaryotic ribosomes [37]: only low activity; selectivity at the target level ([37]; bacterial versus eukaryotic ribosomes): excellent selectivity
CNC1C(OC2OC(CO)C(N)C(O)C2O)OC2CC(N)C(OC3C(N)CC(N)C(O)C3O)OC2C1O (stereo not drawn) [DC161, 5-Epi-apramycin]	> 32	7.30	4.70	4.77	2	1	2	2	2	4	4	4-8	64	4	4	2-4	4	4	8	2	MIC [38]: 2 µg/mL (≈ 3.71 µM); circumvention of the resistance mechanism apmA [39]: circumvent the resistance mechanism apmA; MIC ([39]; apmA resistance gene): 2 µg/mL (≈ 3.71 µM); MIC ([14]; reference strain): 0.5 µg/mL (≈ 0.927 µM); Disk diffusion 25 nmol N. gonorrhoeae [40]: 10 mm; Activity E. coli pH424 armA [28]: 2; Activity E. coli pH425 rmtB [29]: 2; Activity E. coli pH426 rmtC [30]: 2; Activity E. coli pH427 rmtF [31]: 2
